Reference: publication PMC6270011, “Design and Synthesis of Arylthiophene-2-Carbaldehydes via Suzuki-Miyaura Reactions and Their Biological Evaluation” (Molecules, 2013)
≈ marks a conversion by molar mass, not a printed value. Like-named read-outs stand apart in the source and are kept apart here.

How the values were obtained:
Staphylococcus aureus = experiment: Antibacterial activity (disc / inhibition zone) against Staphylococcus aureus; conditions: for zone of inhibition at 25 µg/mL / zone of inhibition at 50 µg/mL: read-out: Inhibition zone, S. aureus
Gram-negative bacteria = experiment: Antibacterial activity against Gram-negative bacteria (strain not named); type: cell-based
Salmonella typhi = experiment: Antibacterial activity (disc / inhibition zone) against Salmonella typhi; conditions: Salmonella enterica; for zone of inhibition at 25 µg/mL / zone of inhibition at 50 µg/mL: read-out: Inhibition zone, S. typhi
Pseudomonas aeruginosa = experiment: Antibacterial activity (disc / inhibition zone) against Pseudomonas aeruginosa; conditions: read-out: Inhibition zone, P. aeruginosa
Escherichia coli = experiment: Antibacterial activity (disc / inhibition zone) against Escherichia coli; conditions: for zone of inhibition at 25 µg/mL / zone of inhibition at 50 µg/mL: read-out: Inhibition zone, E.coli
Shigella dysenteriae = experiment: Antibacterial activity (disc / inhibition zone) against Shigella dysenteriae; conditions: read-out: Inhibition zone, S. dysenteriae
[1] = system: human red blood cells (erythrocytes); type: cell-based; conditions: human erythrocytes, 37 °C, 35 min
Method: Three mL of freshly obtained human blood was placed in heparinized tubes to avoid coagulation, gently mixed and poured into a sterile 15 mL Falcon tube and centrifuged for 5 min at 1,000 ×g. The supernatant was discarded and red blood cells were washed three times with chilled (4 °C) sterile isotonic phosphate buffer saline pH 7.4 (5 mL). Erythrocytes (10^8 cells/mL) were maintained for each assay by dilution with phosphate buffer saline. Erythrocytes were counted on a heamacytometer. Twenty µL of each compound was mixed with red blood cells suspension (180 μL) separately. The samples were incubated at 37 °C for 35 min. The samples were placed on ice for 5 min and then agitated at 1,000 ×g for 5 min. Supernatant (100 µL) were taken from each tube and diluted 10 times with chilled (4 °C) phosphate buffered saline. Triton X-100 (0.1% v/v) was taken as a positive control and PBS was negative control and then subjected to the same process. […] The percentage RBSs lyses for each sample was calculated.

[2] = Nitric oxide (NO) scavenging assay; type: biochemical
Source text: Nitric oxide (NO) is a free radical causing inflammatory disorders and cancer in the human body when sodium nitroprusside decomposes to produce nitric oxide. The antioxidant activity of various thiophene derivatives has been reported in the literature and it has also been observed that compounds with high antioxidant activity served as antitumor agents. The newly synthesized compounds reacted directly with nitric oxide and inhibited nitrite formation in an excellent way.
The reaction mixtures comprising sample solution (2 µL), phosphate buffer (17 µL) and sodium nitroprusside (20 µL) were incubated at 37 °C for 2 h in well plates. Then Griess reagent (20 µL, 0.3% sulphanilic acid in glacial acetic acid + 0.1% naphthylethylenediamine (NED): equal volumes of both solutions mixed just before use) was added to each well plate and the mixture kept at room temperature for 20 min to develop the color. The absorbance was measured at 528 nm by using an ELISA reader. The results were processed using Gen 5 software. All the reactions were performed in triplicate. Positive control (containing known antioxidant) and control (containing all samples) were run in parallel. Negative control was used to calibrate the instrument. The % age antioxidant activity was determined by using the following formula: % antioxidant activity = [(Absorbance of control − absorbance of sample)/(Absorbance of control)] × 100

Bacillus subtilis = experiment: Antibacterial activity (disc / inhibition zone) against Bacillus subtilis; conditions: read-out: Inhibition zone, B. subtilis
urease enzyme = urease enzyme (Canavalia ensiformis, UniProt P07374)
[3] = 25 µg/mL, read-out: % Activity at 25 µg (NO scavenging)
[4] = 50 µg/mL, read-out: % Activity at 50 µg (NO scavenging)
[5] = 100 µg/mL, read-out: % Activity at 100 µg (NO scavenging)

Sequence of urease enzyme (P07374 whole entry, looked up): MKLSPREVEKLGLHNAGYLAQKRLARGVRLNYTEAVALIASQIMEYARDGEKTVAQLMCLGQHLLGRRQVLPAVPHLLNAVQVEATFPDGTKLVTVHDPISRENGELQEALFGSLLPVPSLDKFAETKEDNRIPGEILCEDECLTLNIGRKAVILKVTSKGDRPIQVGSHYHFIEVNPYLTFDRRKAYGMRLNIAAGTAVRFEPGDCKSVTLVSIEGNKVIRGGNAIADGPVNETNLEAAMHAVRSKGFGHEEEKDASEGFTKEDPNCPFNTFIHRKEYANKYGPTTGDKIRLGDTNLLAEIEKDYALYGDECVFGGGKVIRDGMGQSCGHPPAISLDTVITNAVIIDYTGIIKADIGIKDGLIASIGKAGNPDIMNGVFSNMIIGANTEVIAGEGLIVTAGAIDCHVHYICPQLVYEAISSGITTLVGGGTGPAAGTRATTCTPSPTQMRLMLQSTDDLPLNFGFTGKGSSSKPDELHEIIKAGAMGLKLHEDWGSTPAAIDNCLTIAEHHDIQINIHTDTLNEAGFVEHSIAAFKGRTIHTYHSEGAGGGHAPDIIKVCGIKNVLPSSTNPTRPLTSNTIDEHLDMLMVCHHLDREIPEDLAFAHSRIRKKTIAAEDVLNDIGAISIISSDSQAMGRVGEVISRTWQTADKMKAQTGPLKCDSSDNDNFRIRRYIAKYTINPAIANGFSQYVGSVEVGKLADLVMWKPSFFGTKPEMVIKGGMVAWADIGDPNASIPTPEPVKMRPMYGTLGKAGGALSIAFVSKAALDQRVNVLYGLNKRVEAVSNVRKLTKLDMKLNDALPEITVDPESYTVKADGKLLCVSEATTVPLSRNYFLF

Row | SMILES | melting point [°C] | zone of inhibition at 25 µg/mL (Staphylococcus aureus) [mm] | zone of inhibition at 50 µg/mL (Staphylococcus aureus) [mm] | zone of inhibition at 25 µg/mL (Salmonella typhi) [mm] | zone of inhibition at 50 µg/mL (Salmonella typhi) [mm] | zone of inhibition at 25 µg/mL (Pseudomonas aeruginosa) [mm] | zone of inhibition at 50 µg/mL (Pseudomonas aeruginosa) [mm] | zone of inhibition at 25 µg/mL (Escherichia coli) [mm] | zone of inhibition at 50 µg/mL (Escherichia coli) [mm] | zone of inhibition at 25 µg/mL (Shigella dysenteriae) [mm] | zone of inhibition at 50 µg/mL (Shigella dysenteriae) [mm] | Haemolytic activity, percentage of lysis (Average ± SD) [1] [%] | inhibition [2, 3] [%] | inhibition [2, 4] [%] | inhibition [2, 5] [%] | zone of inhibition at 25 µg/mL (Bacillus subtilis) [mm] | zone of inhibition at 50 µg/mL (Bacillus subtilis) [mm] | other results
1 | Cc1cc(C)cc(-c2csc(C=O)c2)c1 [2g, 4-(3,5-Dimethylphenyl)thiophene-2-carbaldehyde] | 71 to 73 | 27 ± 0.08 | 59 ± 0.44 | 32.2 ± 0.11 | 61 ± 0.16 | 25 ± 0.06 | 56 ± 0.04 | 22.5 ± 0.11 | 44.5 ± 0.19 | 32 ± 0.01 | 59 ± 0.44 | 4.525 ± 0.075 | 13 ± 0.002 | 28 ± 0.007 | 43 ± 0.002 | 36 ± 0.08 | 56 ± 0.24 | IC50 (Gram-negative bacteria): 45.2 µg/mL (≈ 209 µM)
2 | Cc1ccc(-c2csc(C=O)c2)s1 [2j, 5-Methyl-2,3-bisthiophene-5-carbaldehyde] | 218 to 220 | 35.2 ± 0.01 | 65 ± 0.09 | 29 ± 0.1 | 63 ± 0.1 | 36 ± 0.16 | 69 ± 0.16 | 26 ± 0.03 | 66 ± 0.43 | 35 ± 0.2 | 65 ± 0.09 | 4.135 ± 0.095 | 15 ± 0.021 | 50 ± 0.024 | 65 ± 0.013 | 27.1 ± 0.01 | 60 ± 0.05 | IC50 (Staphylococcus aureus; read-out: IC50 against Staphylococcus aureus): 37.4 µg/mL (≈ 180 µM); IC50 (Salmonella typhi; read-out: IC50 against Salmonella typhi): 37.4 µg/mL (≈ 180 µM); IC50 (Escherichia coli; read-out: IC50 against Escherichia coli): 40 µg/mL (≈ 192 µM); IC50 (NO scavenging) [2]: 49.3 µg/mL (≈ 237 µM)
3 | NC(N)=S [Thiourea, thiourea, reference compound] | – | – | – | – | – | – | – | – | – | – | – | – | – | – | – | – | – | IC50 (urease inhibition) (urease enzyme): 27.5 µg/mL (≈ 361 µM); %age Activity at 25 μg (urease inhibition) (urease enzyme; 25 µg/mL): 47 ± 0.007%; %age Activity at 50 μg (urease inhibition) (urease enzyme; 50 µg/mL): 77 ± 0.015%
